In publication PMC12655351, “Synthesis and Anticancer Activity Evaluation of New 5-((5-Nitrofuran-2-yl)allylidene)-2-thioxo-4-thiazolidinones” (Pharmaceuticals, 2025):

Legend:
[1] = test system: MCF-7; assay: [3H]-thymidine incorporation assay; type: cell-based; conditions: Homo sapiens, MCF7; MCF-7, 24 h of treatment
Protocol: (§1) Another method of assessing the cytotoxic effects of tested compounds, [^3H]-thymidine incorporation assay, was applied. This method provided the capability to analyze the antiproliferative activity of novel structures on MCF-7 and MDA-MB-231 through their ability to incorporate thymidine into the cells. The acquired results further confirmed the potent activity of the 14b compound as the most prominent structure among the novel compounds (Table 2). The test was carried out in triplicate at concentrations of 5, 15, and 30 μM for the MDA-MB-231 cell line and 1, 5, and 10 μM for the MCF-7 cell line.
(§2) Following the selection of cell lines for further study, the effects of all compounds on cell proliferation were evaluated on MCF-7 and MDA-MB-231 cell lines. Cells were seeded in 24-well plates and cultured as described above. Cells were treated with the compounds at concentrations 1, 5, and 10 μM, and 5, 15, and 30 μM for MCF-7 and MDA-MB-231 cell lines, respectively, for 24 h. Subsequently, 0.5 μCi [^3H]-thymidine was added for 4 h at 37 °C. Then, plates with cells were placed on the ice, the liquid was aspirated, and cells were washed twice with 1mL of 0.05 M Tris-HCl buffer comprising 0.11 M NaCl and precipitated by adding 1 mL per well of 5% trichloroacetic. After precipitation, the cells were dissolved with 1 mL of 0.1 M NaOH with 1% SDS (Sigma-Aldrich, St. Louis, MO, USA) at room temperature (RT). The cell lysates were transferred into scintillation vials containing 2 mL of scintillation fluid (Ultima Gold™ XR, PerkinElmer, MA, USA), and cell-associated radioactivity was measured using a Scintillation Counter 1900 TR, TRI-CARB (Packard, Perkin Elmer, Inc., San Jose, CA, USA). The [^3H]-thymidine uptake was expressed as a percentage of the control value.

[2] = test system: MDA-MB-231; assay: [3H]-thymidine incorporation assay; type: cell-based; conditions: Homo sapiens; MDA-MB-231, 24 h of treatment
Protocol: as §1, §2

[3] = test system: SR; conditions: 48 h
[4] = test system: NCI-H23; conditions: NCI-H23, 48 h
[5] = test system: HCC-2998; conditions: HCC-2998, 48 h
[6] = test system: SF-539; conditions: SF-539, 48 h
[7] = test system: OVCAR-3; conditions: OVCAR-3, 48 h
[8] = test system: OVCAR-4; conditions: OVCAR-4, 48 h
[9] = test system: NCI/ADR-RES; conditions: 48 h
[10] = test system: MDA-MB-231/ATCC; conditions: 48 h
[11] = test system: HS 578T; conditions: 48 h
[12] = test system: T-47D; conditions: 48 h
[13] = test system: Melanoma; conditions: Melanoma subpanel
[14] = test system: Ovarian cancer; conditions: Ovarian cancer subpanel
[15] = test system: Prostate Cancer; conditions: Prostate Cancer subpanel
[16] = test system: panel of 60 cancer cell lines
[17] = test system: SR; assay: cells; conditions: Homo sapiens, 48 h
[18] = test system: LOX IMVI; assay: cells; conditions: Homo sapiens, 48 h
[19] = test system: OVCAR-3; assay: cells; conditions: Homo sapiens, OVCAR-3, 48 h
[20] = test system: 786-0; assay: cells; conditions: Homo sapiens, 786-0, 48 h
[21] = test system: SN12C; assay: cells; conditions: Homo sapiens, 48 h
[22] = test system: Leukemia; assay: cells; conditions: Homo sapiens
[23] = test system: Breast cancer; assay: cells; conditions: Homo sapiens
[24] = test system: HOP-62; assay: NCI-60 SRB screen; conditions: HOP-62, 48 h
[25] = test system: SF-295; assay: NCI-60 SRB screen; conditions: SF-295, 48 h
[26] = test system: SNB-19; assay: NCI-60 SRB screen; conditions: SNB-19, 48 h
[27] = test system: SNB-75; assay: NCI-60 SRB screen; conditions: SNB-75, 48 h
[28] = test system: U251; assay: NCI-60 SRB screen
[29] = test system: RXF 393; assay: NCI-60 SRB screen; conditions: RXF 393, 48 h
[30] = test system: Colon cancer; assay: NCI-60 SRB screen, subpanel

With `CCCCC(C(=O)O)N1C(=O)/C(=C/C=C/c2ccc([N+](=O)[O-])o2)SC1=S` (stereo not drawn) [6b, 2-((Z)-5-((E)-3-(5-nitrofuran-2-yl)allylidene)-4-oxo-2-thioxothiazolidin-3-yl)hexanoic acid] the IC50 [1] was 5.81 µM, the IC50 [2] was 2.01 µM and the TGI [3] was 8.66 µM. The TGI [4] was 3.51 µM, the TGI [5] was 3.34 µM and the TGI [6] was 4.17 µM. The TGI [7] was 5.33 µM, the TGI [8] was 19.0 µM and the TGI [9] was 5.61 µM. For the same compound, the TGI [10] was 4.45 µM, the TGI [11] was 27.4 µM and the TGI [12] was 4.03 µM. The “MG_MID TGI” value [13] was 3.59 µM, the “MG_MID TGI” value [14] was 9.10 µM and the “MG_MID TGI” value [15] was 10.8 µM. For the same compound, the “Positive cytostatic effect (ratio of cell lines with GP from 0 to 50 to total number)” value ([16]; 10 μM, 48 h) was 6/55, the Range of growth ([16]; 10 μM, 48 h, one dose) was -99.30 to 46.65% and the “MG_MID TGI” value ([16]; full panel (last line of Table S2)) was 6.27 µM. The GI50 [17] was 1.98 µM, the CC50 ([17]; read-out: LC50) was greater than 100 µM and the GI50 [18] was 1.76 µM. It also gave a CC50 ([18]; read-out: LC50, LOX IMVI, 48 h) of 6.37 µM, a GI50 [19] of 2.23 µM and a GI50 [20] of 3.11 µM. The GI50 [21] was 1.75 µM, the CC50 ([21]; read-out: LC50, SN12C, 48 h) was 9.18 µM and the GI50 ([22]; read-out: MG_MID GI50) was 2.57 µM. The CC50 ([22]; read-out: MG_MID LC50) was 98.4 µM, the GI50 ([23]; read-out: MG_MID GI50) was 2.03 µM and the CC50 ([23]; read-out: MG_MID LC50) was 26.7 µM. For the same compound, the TGI [24] was 5.20 µM, the GI50 ([24]; Homo sapiens) was 2.25 µM and the GI50 ([25]; Homo sapiens) was 2.23 µM. The CC50 ([25]; Homo sapiens, read-out: LC50, SF-295, 48 h) was 13.5 µM, the TGI [25] was 4.99 µM and the GI50 ([26]; Homo sapiens) was 2.1 µM. It also gave a CC50 ([26]; Homo sapiens, read-out: LC50, SNB-19, 48 h) of 13.5 µM, a TGI [26] of 4.88 µM and a GI50 ([27]; Homo sapiens) of 1.77 µM. For the same compound, the CC50 ([27]; Homo sapiens, read-out: LC50, SNB-75, 48 h) was 8.06 µM, the TGI [27] was 3.77 µM and the GI50 ([28]; Homo sapiens, U-251, 48 h, U251, 48 h) was 1.91 µM. The CC50 ([28]; Homo sapiens, U-251, 48 h, read-out: LC50, U251, 48 h) was 11 µM, the TGI ([28]; U251, 48 h) was 4.42 µM and the GI50 ([29]; Homo sapiens) was 1.69 µM. For the same compound, the TGI [29] was 3.20 µM, the “MG_MID TGI” value ([30]; Colon cancer subpanel) was 3.57 µM and the GI50 ([30]; Homo sapiens, read-out: MG_MID GI50) was 1.81 µM. For the same compound, the CC50 ([30]; Homo sapiens, read-out: MG_MID LC50) was 6.66 µM.

Compound `CC(C(=O)O)N1C(=O)/C(=C/C=C/c2ccc([N+](=O)[O-])o2)SC1=S` (stereo not drawn) [2b, 2-((Z)-5-((E)-3-(5-Nitrofuran-2-yl)allylidene)-4-oxo-2-thioxothiazolidin-3-yl)propanoic acid] has an IC50 [1] of 6.61 µM and an IC50 [2] of 5.56 µM.
